Publication PMC9607599, “Dual Targeting Ligands—Histamine H3 Receptor Ligands with Monoamine Oxidase B Inhibitory Activity—In Vitro and In Vivo Evaluation” (Pharmaceutics, 2022)

Legend:
human MAO B (hMAO B) [1] = biological target: T1, human MAO B (hMAO B) (Homo sapiens, UniProt P27338); assay: fluorometric MAO assay (p-tyramine substrate); type: biochemical; conditions: fluorometric MAO assay; mean ± SEM of 2–4 independent experiments
T1 sequence (P27338 1-520): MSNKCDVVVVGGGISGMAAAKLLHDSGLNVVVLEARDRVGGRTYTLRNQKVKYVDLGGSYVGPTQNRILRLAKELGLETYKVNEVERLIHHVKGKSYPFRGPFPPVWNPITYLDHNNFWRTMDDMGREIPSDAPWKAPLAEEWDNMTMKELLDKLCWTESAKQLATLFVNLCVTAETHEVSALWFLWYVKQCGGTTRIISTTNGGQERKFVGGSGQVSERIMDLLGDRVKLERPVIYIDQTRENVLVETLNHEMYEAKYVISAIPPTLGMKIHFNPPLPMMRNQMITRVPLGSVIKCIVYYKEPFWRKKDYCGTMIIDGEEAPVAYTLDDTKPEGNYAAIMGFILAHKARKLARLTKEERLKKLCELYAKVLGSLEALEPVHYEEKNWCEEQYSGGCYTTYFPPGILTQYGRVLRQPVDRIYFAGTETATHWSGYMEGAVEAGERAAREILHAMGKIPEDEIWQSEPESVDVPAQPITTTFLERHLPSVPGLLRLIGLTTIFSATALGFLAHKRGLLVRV
Method: The precise method was described in [6]. First, compounds 4–32 were screened for hMAO B inhibitory activity at 1 μM concentration by the fluorometric method. Para-tyramine (200 μM) was used as a substrate for the enzyme and safinamide (1 μM) was used as a reference compound. […] Each experiment was performed in duplicate.
All compounds were first screened for hMAO B inhibitory activity at the concentration of 1 μM. […] Based on the results, we selected compounds 9 and 13 for further analysis.

MAO B = biological target: T2, MAO B (Homo sapiens, UniProt P27338); assay: reversibility of MAO B inhibition (reactivation by excess p-tyramine, with/without preincubation); type: biochemical; conditions: inhibitor at IC80
T2 sequence (P27338 1-520): T1 sequence (P27338 1-520)
Method: The reversibility of the MAO inhibition was tested as described in [6, 7]. […] Two variants of experiment were performed. […] After 22 min, the concentration of the substrate was increased to 200 µM and the signal was measured for 5 h.

[2] = MTT cell viability test on human astrocytes; type: cell-based; conditions: human; 24 h; at 0.15 and 0.25 mg/mL; read-out: decline in cell viability in comparison to the control level
Method: The studies were performed on a commercially-available astrocyte cell line isolated from human cerebral cortex (ScienCell Research Laboratories, San Diego, CA, USA; Cat no. 1800). The cells (passage 7–8) were seeded into a 96-well plate at an amount of 10,000 cells/well and kept in accordance with the ScienCell Research Laboratories’ protocol, i.e., in astrocyte medium supplemented with 2% fetal bovine serum, 10% astrocyte growth supplement and 1% penicillin/streptomycin solution, in an atmosphere with 5% CO2 at 37 °C. The cells were allowed to grow for 24 h and then treated with increasing concentrations of test compounds (0.01–0.25 mg/mL) for 24 and 72 h. Astrocytes in the medium on each plate (regardless of the factors tested) were used as a positive control.
The viability of the astrocyte cell line was determined calorimetrically using 3-(4,5-dimethylthazol-2-yl)-2,5-diphenyltetrazolium bromide (MTT; Sigma-Aldrich Chemical Co. Ltd., Saint Louis, MO, USA) as described earlier. […] After the incubation time (24 or 72 h) with examined drugs, 50 μL MTT solution (1 mg/mL) was added to each well of the plate for another 4 h. The method is based on the reduction of a yellow tetrazolium salt (MTT) into purple formazan crystals by mitochondrial succinate-tetrazolium reductase system which is metabolically active in viable cells. At the end of the experiment, the cells were treated with 100 μL dimethyl sulphoxide, which enabled the release of the reaction product.
The absorbance was measured at 570 nm using a BioTek EL×800 microplate reader (BioTek, Winooski, Vermont, USA) and results were expressed as a percentage of the absorbance measured in control cells. The obtained values were plotted against different concentrations of each compound to calculate the viability inhibition concentration at 50% (IC50) using GraphPad Prism 6.07 (GraphPad Software, Inc., San Diego, CA, USA). The experiment was repeated in quadruplicate.
For the cytotoxicity assessment in the MTT assays, each test drug was used at 8 concentrations (range: 0.01–0.25 mg/mL).

[3] = parallel artificial membrane permeability assay (PAMPA); type: in vitro ADME
[4] = biological target: human histamine H3 receptor (hH3R) (Homo sapiens, UniProt Q9Y5N1); assay: [3H]Nα-methylhistamine radioligand binding assay in CHO-K1 cells stably expressing hH3R; parameters: expressed in transfected cells; host or cells: CHO-K1; conditions: CHO-K1 cells; [3H]Nα-methylhistamine; mean ± SEM of three independent experiments; read-out: hH3R Ki [nM] ± SEM
Method: Affinity to hH3R stably expressed in CHO-K1 [6] or HEK293 [11] cells was evaluated in a radioligand binding assay as described previously. Briefly, 10 mM stock solutions of the test compounds in DMSO were prepared. Each compound was tested at eight concentrations ranging from 10^−5 to 10^−12 M (final concentration). All assays were carried out in duplicate. […] The radioactivity was counted in MicroBeta 2 [6] or MicroBeta Trilux counter (PerkinElmer). Data were fitted to a one-site curve-fitting equation with Prism 6 (GraphPad Software, San Diego, CA, USA) and Ki values were calculated from IC50 values (from at least three experiments performed in duplicates) according to the Cheng−Prusoff equation [12].
Affinity for hH3R was evaluated in a radioligand binding assay using [^3H]N^α-methylhistamine as radioligand in CHO K1 or HEK293 cells stably expressing hH3R as described previously. […] Then, those with at least 50% inhibition for hH3R were selected for further testing (Ki evaluation). […] Compounds were tested in the binding assay in HEK293 cells.

human MAO B (hMAO B) [5] = biological target: T1, human MAO B (hMAO B); assay: modality of hMAO B inhibition (Michaelis-Menten / Lineweaver-Burk); type: biochemical
Method: Modality of hMAO B inhibition was evaluated for compounds 9 and 13 and the reference safinamide according to the method described previously. Three concentrations of inhibitors, corresponding to their IC20, IC50 and IC80 values, were used. Each experiment was performed in triplicate. KM and Vmax values were calculated from Michaelis–Menten curves by nonlinear regression from the substrate. Lineweaver–Burk plots were calculated using linear regression in GraphPad Prism 6.07 (GraphPad Software, San Diego, CA, USA).
For testing modality of enzyme inhibition, we used three concentrations of inhibitors that corresponded to their IC20, IC50 and IC80 values. Substrate (p-tyramine) was used at concentrations: 0.05, 0.1, 0.5, 1.0, 1.5 and 2.0 mM.

[6] = inhibitor at IC20, IC50, IC80, p-tyramine 0.05–2.0 mM

human histamine H3 receptor (hH3R), sequence (Q9Y5N1 whole entry): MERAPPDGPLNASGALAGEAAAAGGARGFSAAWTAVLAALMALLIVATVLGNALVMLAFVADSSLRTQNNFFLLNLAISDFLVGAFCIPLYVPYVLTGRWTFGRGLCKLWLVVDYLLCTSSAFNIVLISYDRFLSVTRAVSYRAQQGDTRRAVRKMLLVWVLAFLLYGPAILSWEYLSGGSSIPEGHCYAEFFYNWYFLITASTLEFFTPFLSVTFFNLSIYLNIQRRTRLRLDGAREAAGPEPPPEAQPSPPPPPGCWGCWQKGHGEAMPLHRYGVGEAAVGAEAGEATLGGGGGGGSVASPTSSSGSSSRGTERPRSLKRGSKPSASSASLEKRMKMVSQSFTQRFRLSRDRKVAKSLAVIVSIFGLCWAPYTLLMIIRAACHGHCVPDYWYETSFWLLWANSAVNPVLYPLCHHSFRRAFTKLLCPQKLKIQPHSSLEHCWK

## CC1CCCN1CCCOc1ccc(C(C)(C)C)cc1.O=C(O)C(=O)O (centres unmarked) [Compound 13, 1-(3-(4-(tert-Butyl)phenoxy)propyl)-2-methylpyrrolidine hydrogen oxalate]
Human MAO B (hMAO B) [1]
  IC50: 4 ± 0.3 nM
MAO B
  effect of 30 min preincubation on inhibition (preincubated vs non-preincubated): did not show differences between the variants
MAO B; excess p-tyramine 200 µM
  reversibility of MAO B inhibition: reversible inhibition
[2]
  viability at 24 h: > 95%
[3]
  permeability in PAMPA, in words: high permeability
[3]; PAMPA, triplicate, breakpoint for permeable compounds Pe ≥ 1.5×10^−6 cm/s
  Pe (×10^−6cm/s) ± SD: 16.72 ×10^−6cm/s
[3]; PAMPA, triplicate, breakpoint for permeable compounds Pe ≥ 1.5×10^−6 cm/s, read-out: Pe ± SD
  Papp: 16.72 ± 0.06 ×10⁻⁶ cm/s
[4]
  Ki: 25 ± 9 nM
Human MAO B (hMAO B) [5]
  Affinity (free enzyme vs enzyme-substrate complex): Free enzyme ≈ enzyme-substrate complex
  Mode of inhibition from kinetic values and LB plot: noncompetitive inhibition
Human MAO B (hMAO B) [5]; Lineweaver–Burk double-reciprocal plot
  Lines on LB plot: Lines intersect to the left of y-axis directly on x-axis
Human MAO B (hMAO B) [5]; [6]
  app. KM: No effect ^a
  app. Vmax: ↓ curvilinearly with ↑ [I]
  app. Vmax/app. KM: ↓ curvilinearly with ↑ [I]
